# Measured values published in ChEMBL document CHEMBL4265899, “Trisubstituted thiazoles as potent and selective inhibitors of Plasmodium falciparum protein kinase G (PfPKG)” (Bioorg Med Chem Lett, 2018).
# Tests used:
# [1] = target: Vascular endothelial growth factor receptor 2 (Homo sapiens) (UniProt P35968); assay: Inhibition of human VEGFR at 100 nM
# [2] = target: Serine/threonine-protein kinase 26 (Homo sapiens) (UniProt Q9P289); assay: Inhibition of human MST4 at 100 nM
# [3] = target: Tyrosine-protein kinase Lck (Homo sapiens) (UniProt P06239); assay: Inhibition of human LCK at 100 nM
# [4] = Metabolic stability in mouse liver microsomes assessed as compound remaining after 40 mins; assay type: ADME, microsome; conditions: read-out: Stability
# [5] = target: Insulin receptor (Homo sapiens) (UniProt P06213); assay: Inhibition of human IR at 100 nM
# [6] = target: Dual specificity protein kinase TTK (Homo sapiens) (UniProt P33981); assay: Inhibition of human TTK at 100 nM
# [7] = target: Mitogen-activated protein kinase 8 (Homo sapiens) (UniProt P45983); assay: Inhibition of human JNK1 at 100 nM
# [8] = target: MAP kinase-activated protein kinase 5 (Homo sapiens) (UniProt Q8IW41); assay: Inhibition of human PRAK at 100 nM
# [9] = target: Ribosomal protein S6 kinase alpha-3 (Homo sapiens) (UniProt P51812); assay: Inhibition of human RSK2 at 100 nM
# [10] = target: Mitogen-activated protein kinase kinase kinase kinase 2 (Homo sapiens) (UniProt Q12851); assay: Inhibition of human GCK at 100 nM
# [11] = target: 3-phosphoinositide-dependent protein kinase 1 (Homo sapiens) (UniProt O15530); assay: Inhibition of human PDK1 at 100 nM
# [12] = target: Serine/threonine-protein kinase Sgk1 (Homo sapiens) (UniProt O00141); assay: Inhibition of human SGK1 at 100 nM
# [13] = target: Aurora kinase B (Homo sapiens) (UniProt Q96GD4); assay: Inhibition of human Aurora B at 100 nM
# [14] = target: Phosphorylase kinase (Homo sapiens) (UniProt P15735+P46020+P46019+Q93100+Q16816); assay: Inhibition of human PHK at 100 nM; assay type: protein-complex assay
# [15] = target: Protein kinase C zeta type (Homo sapiens) (UniProt Q05513); assay: Inhibition of human PKCzeta at 100 nM
# [16] = target: Tyrosine-protein kinase SYK (Homo sapiens) (UniProt P43405); assay: Inhibition of human SYK at 100 nM
# [17] = target: Mitogen-activated protein kinase 14 (Homo sapiens) (UniProt Q16539); assay: Inhibition of human p38a MAPK at 100 nM
# [18] = target: Serine/threonine-protein kinase STK11 (Homo sapiens) (UniProt Q15831); assay: Inhibition of human LKB1 at 100 nM
# [19] = target: Calcium/calmodulin-dependent protein kinase type 1 (Homo sapiens) (UniProt Q14012); assay: Inhibition of human CAMK1 at 100 nM
# [20] = target: CDK2/Cyclin A2 (Homo sapiens) (UniProt P24941+P20248); assay: Inhibition of human CDK2/Cyclin A at 100 nM; assay type: protein-complex assay
# [21] = target: Myosin light chain kinase, smooth muscle (Homo sapiens) (UniProt Q15746); assay: Inhibition of human SmMLCK at 100 nM
# [22] = target: Glycogen synthase kinase-3 beta (Homo sapiens) (UniProt P49841); assay: Inhibition of human GSK3beta at 100 nM
# [23] = target: Tyrosine-protein kinase BTK (Homo sapiens) (UniProt Q06187); assay: Inhibition of human BTK at 100 nM
# [24] = target: Mitogen-activated protein kinase kinase kinase 9 (Homo sapiens) (UniProt P80192); assay: Inhibition of human MLK1 at 100 nM
# [25] = target: Serine/threonine-protein kinase Nek2 (Homo sapiens) (UniProt P51955); assay: Inhibition of human NEK2a at 100 nM
# [26] = target: T1, Inhibitor of nuclear factor kappa-B kinase subunit beta (Homo sapiens) (UniProt O14920); conditions: at 100 nM
# T1 sequence (whole entry): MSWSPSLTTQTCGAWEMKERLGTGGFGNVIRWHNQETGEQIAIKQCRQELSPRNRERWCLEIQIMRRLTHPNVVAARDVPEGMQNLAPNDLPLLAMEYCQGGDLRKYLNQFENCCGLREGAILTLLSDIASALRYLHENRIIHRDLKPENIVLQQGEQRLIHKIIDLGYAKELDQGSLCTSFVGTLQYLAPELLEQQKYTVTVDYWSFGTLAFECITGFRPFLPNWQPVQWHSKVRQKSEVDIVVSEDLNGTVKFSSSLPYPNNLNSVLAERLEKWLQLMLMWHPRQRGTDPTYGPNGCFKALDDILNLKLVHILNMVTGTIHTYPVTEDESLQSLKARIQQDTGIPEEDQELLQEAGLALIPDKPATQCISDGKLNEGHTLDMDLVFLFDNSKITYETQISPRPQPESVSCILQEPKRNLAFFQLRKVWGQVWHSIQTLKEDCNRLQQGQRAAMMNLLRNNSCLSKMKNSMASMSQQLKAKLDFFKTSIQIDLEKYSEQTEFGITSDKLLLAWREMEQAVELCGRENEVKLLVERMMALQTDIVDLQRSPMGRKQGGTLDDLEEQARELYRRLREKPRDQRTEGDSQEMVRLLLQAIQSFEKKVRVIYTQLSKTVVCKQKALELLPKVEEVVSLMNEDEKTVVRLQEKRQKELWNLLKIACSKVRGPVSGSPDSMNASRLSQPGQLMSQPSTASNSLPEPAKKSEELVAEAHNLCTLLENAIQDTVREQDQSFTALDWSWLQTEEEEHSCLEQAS
# Description: Inhibition of human IKKb at 100 nM
# [27] = target: Ribosomal protein S6 kinase alpha-5 (Homo sapiens) (UniProt O75582); assay: Inhibition of human MSK1 at 100 nM
# [28] = target: Interleukin-1 receptor-associated kinase 4 (Homo sapiens) (UniProt Q9NWZ3); assay: Inhibition of human IRAK4 at 100 nM
# [29] = target: Tyrosine-protein kinase JAK2 (Homo sapiens) (UniProt O60674); assay: Inhibition of human JAK2 at 100 nM
# [30] = target: Ribosomal protein S6 kinase beta-1 (Homo sapiens) (UniProt P23443); assay: Inhibition of human S6K1 at 100 nM
# [31] = target: SRSF protein kinase 1 (Homo sapiens) (UniProt Q96SB4); assay: Inhibition of human SRPK1 at 100 nM
# [32] = target: Receptor-interacting serine/threonine-protein kinase 2 (Homo sapiens) (UniProt O43353); assay: Inhibition of human RIPK2 at 100 nM
# [33] = target: NUAK family SNF1-like kinase 1 (Homo sapiens) (UniProt O60285); assay: Inhibition of human NUAK1 at 100 nM
# [34] = target: Serine/threonine-protein kinase Chk2 (Homo sapiens) (UniProt O96017); assay: Inhibition of human CHK2 at 100 nM
# [35] = target: Mitogen-activated protein kinase 9 (Homo sapiens) (UniProt P45984); assay: Inhibition of human JNK2 at 100 nM
# [36] = target: Serine/threonine-protein kinase PAK 4 (Homo sapiens) (UniProt O96013); assay: Inhibition of human PAK4 at 100 nM
# Chain of Serine/threonine-protein kinase PAK 4 (Homo sapiens) (O96013 whole entry, looked up): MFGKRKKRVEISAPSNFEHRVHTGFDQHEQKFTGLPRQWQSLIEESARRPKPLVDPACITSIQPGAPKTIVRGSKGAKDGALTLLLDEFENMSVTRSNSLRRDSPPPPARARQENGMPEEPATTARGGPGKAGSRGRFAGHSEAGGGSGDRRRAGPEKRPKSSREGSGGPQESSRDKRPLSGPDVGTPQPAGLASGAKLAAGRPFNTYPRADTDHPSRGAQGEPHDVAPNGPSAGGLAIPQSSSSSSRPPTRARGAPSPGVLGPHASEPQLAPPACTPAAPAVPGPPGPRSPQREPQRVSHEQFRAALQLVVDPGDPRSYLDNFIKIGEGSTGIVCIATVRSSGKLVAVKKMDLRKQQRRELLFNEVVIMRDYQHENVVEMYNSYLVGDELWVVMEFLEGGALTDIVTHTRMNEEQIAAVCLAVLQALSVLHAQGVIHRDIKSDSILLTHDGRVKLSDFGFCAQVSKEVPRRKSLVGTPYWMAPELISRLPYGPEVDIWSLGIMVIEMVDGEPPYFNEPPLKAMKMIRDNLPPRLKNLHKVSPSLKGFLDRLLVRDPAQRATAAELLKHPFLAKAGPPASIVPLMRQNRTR
# Chain of SRSF protein kinase 1 (Homo sapiens) (Q96SB4 whole entry): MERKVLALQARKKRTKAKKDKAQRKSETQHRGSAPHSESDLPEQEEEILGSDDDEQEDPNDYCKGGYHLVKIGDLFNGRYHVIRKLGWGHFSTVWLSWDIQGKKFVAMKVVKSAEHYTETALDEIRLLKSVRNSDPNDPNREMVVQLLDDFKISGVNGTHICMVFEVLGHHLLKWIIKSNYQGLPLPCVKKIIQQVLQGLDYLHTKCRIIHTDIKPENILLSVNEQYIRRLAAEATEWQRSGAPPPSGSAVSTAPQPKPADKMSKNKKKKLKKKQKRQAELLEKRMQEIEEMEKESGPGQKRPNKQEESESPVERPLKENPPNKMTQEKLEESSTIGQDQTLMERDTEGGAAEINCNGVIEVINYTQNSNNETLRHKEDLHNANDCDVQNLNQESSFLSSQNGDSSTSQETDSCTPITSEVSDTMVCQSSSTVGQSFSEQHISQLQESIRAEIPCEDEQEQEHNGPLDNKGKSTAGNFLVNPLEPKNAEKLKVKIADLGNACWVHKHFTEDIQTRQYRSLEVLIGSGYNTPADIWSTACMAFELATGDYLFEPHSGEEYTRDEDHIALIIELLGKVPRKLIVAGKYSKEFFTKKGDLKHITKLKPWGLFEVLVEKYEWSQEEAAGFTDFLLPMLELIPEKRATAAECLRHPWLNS
# Chain of Serine/threonine-protein kinase Chk2 (Homo sapiens) (O96017 whole entry): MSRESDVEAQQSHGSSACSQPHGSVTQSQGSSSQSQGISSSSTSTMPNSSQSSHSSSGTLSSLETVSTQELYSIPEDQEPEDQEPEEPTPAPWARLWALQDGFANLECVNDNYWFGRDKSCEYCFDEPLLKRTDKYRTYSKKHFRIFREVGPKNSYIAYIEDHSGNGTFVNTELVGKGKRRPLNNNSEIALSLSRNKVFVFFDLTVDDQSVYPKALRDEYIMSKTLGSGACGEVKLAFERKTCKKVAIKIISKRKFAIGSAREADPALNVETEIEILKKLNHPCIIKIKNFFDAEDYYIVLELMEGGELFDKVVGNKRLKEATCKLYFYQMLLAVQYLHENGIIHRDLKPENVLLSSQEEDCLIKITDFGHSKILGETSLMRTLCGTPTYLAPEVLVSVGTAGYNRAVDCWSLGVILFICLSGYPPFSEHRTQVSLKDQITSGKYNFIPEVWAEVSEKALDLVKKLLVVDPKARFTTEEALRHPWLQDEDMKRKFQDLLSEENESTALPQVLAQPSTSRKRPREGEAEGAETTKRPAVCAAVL
# Chain of Mitogen-activated protein kinase kinase kinase 9 (Homo sapiens) (P80192 whole entry, looked up): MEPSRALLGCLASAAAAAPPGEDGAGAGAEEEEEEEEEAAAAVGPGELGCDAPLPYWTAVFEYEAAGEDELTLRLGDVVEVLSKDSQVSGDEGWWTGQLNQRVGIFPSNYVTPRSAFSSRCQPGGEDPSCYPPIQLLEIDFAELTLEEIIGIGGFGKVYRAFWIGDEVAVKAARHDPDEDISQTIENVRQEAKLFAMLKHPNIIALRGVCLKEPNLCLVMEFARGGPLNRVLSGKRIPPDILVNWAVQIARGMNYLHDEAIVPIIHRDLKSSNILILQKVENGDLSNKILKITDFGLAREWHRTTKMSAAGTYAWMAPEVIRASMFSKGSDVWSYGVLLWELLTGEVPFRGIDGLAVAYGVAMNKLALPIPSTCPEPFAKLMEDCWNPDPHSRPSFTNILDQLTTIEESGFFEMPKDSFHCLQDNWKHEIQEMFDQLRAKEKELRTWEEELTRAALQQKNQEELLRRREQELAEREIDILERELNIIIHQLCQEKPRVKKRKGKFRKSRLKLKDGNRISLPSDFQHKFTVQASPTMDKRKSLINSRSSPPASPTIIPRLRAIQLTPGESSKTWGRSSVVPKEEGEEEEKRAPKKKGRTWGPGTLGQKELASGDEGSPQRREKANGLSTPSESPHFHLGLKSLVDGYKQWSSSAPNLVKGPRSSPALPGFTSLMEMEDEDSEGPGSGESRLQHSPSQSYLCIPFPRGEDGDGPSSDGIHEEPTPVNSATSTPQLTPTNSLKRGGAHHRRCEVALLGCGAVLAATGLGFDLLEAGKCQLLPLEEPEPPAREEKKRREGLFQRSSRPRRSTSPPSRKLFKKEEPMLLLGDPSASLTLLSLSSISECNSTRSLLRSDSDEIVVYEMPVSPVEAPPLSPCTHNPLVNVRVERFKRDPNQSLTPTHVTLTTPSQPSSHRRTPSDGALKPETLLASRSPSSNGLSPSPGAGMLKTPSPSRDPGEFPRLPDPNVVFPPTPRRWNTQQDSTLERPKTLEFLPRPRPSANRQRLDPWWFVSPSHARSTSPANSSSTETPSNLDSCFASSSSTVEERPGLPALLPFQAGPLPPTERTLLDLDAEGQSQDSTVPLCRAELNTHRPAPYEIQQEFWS
# Chain of Dual specificity protein kinase TTK (Homo sapiens) (P33981 whole entry): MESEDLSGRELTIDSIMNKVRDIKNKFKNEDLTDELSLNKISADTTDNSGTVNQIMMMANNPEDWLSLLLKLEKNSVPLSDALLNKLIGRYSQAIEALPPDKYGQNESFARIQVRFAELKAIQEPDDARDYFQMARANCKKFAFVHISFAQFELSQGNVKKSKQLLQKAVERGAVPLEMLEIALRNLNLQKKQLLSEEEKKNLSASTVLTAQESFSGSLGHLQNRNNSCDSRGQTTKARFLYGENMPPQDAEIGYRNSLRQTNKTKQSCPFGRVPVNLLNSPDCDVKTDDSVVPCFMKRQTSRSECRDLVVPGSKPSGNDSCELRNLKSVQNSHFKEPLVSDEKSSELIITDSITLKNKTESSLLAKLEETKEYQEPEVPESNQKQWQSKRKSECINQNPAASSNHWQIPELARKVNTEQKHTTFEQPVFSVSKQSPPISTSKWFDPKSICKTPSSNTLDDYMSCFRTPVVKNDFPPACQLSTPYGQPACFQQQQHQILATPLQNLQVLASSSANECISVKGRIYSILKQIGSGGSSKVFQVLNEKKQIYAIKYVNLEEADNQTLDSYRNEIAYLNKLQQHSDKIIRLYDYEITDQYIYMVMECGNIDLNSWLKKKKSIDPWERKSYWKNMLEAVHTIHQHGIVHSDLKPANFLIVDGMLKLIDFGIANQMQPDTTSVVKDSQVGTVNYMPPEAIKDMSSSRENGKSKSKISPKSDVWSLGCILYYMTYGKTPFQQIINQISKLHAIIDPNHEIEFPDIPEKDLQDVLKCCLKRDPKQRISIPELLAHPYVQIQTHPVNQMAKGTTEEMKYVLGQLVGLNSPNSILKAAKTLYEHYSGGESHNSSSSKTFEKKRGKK
# Chain of 3-phosphoinositide-dependent protein kinase 1 (Homo sapiens) (O15530 whole entry): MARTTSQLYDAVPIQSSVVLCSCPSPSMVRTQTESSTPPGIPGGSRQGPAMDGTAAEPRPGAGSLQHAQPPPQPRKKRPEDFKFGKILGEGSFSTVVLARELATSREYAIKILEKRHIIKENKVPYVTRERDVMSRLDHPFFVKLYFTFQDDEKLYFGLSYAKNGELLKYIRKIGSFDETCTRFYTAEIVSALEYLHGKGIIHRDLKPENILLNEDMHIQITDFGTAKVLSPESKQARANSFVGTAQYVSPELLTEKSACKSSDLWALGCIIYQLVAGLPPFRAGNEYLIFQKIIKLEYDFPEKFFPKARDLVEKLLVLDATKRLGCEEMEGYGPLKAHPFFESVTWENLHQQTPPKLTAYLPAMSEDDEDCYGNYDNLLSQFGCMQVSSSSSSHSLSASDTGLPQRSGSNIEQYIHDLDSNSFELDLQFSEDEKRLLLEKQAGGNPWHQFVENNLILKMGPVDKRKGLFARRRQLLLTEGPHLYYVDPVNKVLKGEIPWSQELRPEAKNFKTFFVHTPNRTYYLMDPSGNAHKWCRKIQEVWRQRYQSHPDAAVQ
# Chain of Serine/threonine-protein kinase Sgk1 (Homo sapiens) (O00141 whole entry): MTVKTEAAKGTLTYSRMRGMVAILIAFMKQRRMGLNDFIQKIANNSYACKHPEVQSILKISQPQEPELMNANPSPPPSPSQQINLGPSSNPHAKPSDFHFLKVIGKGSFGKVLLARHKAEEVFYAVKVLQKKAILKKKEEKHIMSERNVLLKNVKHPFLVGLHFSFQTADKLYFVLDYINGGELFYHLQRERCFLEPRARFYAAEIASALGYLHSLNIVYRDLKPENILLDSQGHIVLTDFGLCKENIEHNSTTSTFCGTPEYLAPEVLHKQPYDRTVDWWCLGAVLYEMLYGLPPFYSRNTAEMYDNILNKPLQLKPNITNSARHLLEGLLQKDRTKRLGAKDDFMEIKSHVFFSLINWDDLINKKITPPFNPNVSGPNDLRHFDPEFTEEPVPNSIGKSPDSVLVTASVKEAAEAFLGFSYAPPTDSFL
SMILES,inhibition [1],inhibition [2],inhibition [3],remaining at 40 min [4],inhibition [5],inhibition [6],inhibition [7],inhibition [8],inhibition [9],inhibition [10],inhibition [11],inhibition [12],inhibition [13],inhibition [14],inhibition [15],inhibition [16],inhibition [17],inhibition [18],inhibition [19],inhibition [20],also measured
CN1CCC(c2nc(-c3ccc(F)c(NS(C)(=O)=O)c3)c(-c3ccnc(NCC4CC4)n3)s2)CC1,< 70%,< 70%,< 70%,89%,< 70%,< 70%,< 70%,< 70%,< 70%,< 70%,< 70%,< 70%,< 70%,< 70%,< 70%,< 70%,< 70%,< 70%,< 70%,< 70%,inhibition [21]: < 70%; inhibition [22]: < 70%; inhibition [23]: < 70%; inhibition [24]: < 70%; inhibition [25]: < 70%; inhibition [26]: < 70%; inhibition [27]: < 70%; inhibition [28]: < 70%; inhibition [29]: < 70%; inhibition [30]: < 70%; inhibition [31]: < 70%; inhibition [32]: < 70%; inhibition [33]: < 70%; inhibition [34]: < 70%; inhibition [35]: < 70%; inhibition [36]: < 70%
CN1CCC(c2nc(-c3cccc(S(C)(=O)=O)c3)c(-c3ccnc(Nc4ccc(N5CCNCC5)cc4)n3)s2)CC1,< 70%,< 70%,< 70%,89%,< 70%,< 70%,< 70%,< 70%,< 70%,< 70%,< 70%,< 70%,< 70%,< 70%,< 70%,< 70%,< 70%,< 70%,< 70%,< 70%,inhibition [21]: < 70%; inhibition [22]: < 70%; inhibition [23]: < 70%; inhibition [24]: < 70%; inhibition [25]: < 70%; inhibition [26]: < 70%; inhibition [27]: < 70%; inhibition [28]: < 70%; inhibition [29]: < 70%; inhibition [30]: < 70%; inhibition [31]: < 70%; inhibition [32]: 70 to 90%; inhibition [33]: < 70%; inhibition [34]: < 70%; inhibition [35]: < 70%; inhibition [36]: < 70%
